# Source: paper PMC11477482 (Molecules, 2024)
# Entries after “also recorded” stand apart in the source; their conditions may differ.
# Tests used:
# [1] = system: RAW264.7 cells (mitochondrial O2− production); experiment: Mitochondrial antioxidant activity (MitoSOX, rotenone-induced superoxide); format: cell-based, mouse; details: 500 μM; for mitochondrial antioxidant activity: rotenone 20 μM
# Procedure: The human keratinocytes (HaCaT, CLS 300493, Eppelheim, Germany) cell line was cultured with Dulbecco’s Modified Eagle’s Medium (DMEM) (Sigma-Aldrich, St. Louis, MO, USA), supplemented with 10% (v/v) of heat-inactivated fetal bovine serum (FBS), 1% (v/v) antibiotic solution (from a 10,000 U/mL penicillin and 10,000 μg/mL streptomycin stock) (Gibco, Carlsbad, CA, USA), 3.7 g/L sodium bicarbonate, and 1 mM sodium pyruvate (Sigma-Aldrich, St. Louis, MO, USA). The cell culture of keratinocytes was detached with EDTA solution 1X (Sigma-Aldrich, St. Louis, MO, USA) when the cells reached 70–80% confluence in cell culture flasks. The mouse macrophage cell line (RAW 264.7, ATCC TIB-71, Manassas, VA, USA) was cultured in DMEM supplemented with 10% (v/v) non-inactivated FBS, 1% (v/v) antibiotic solution, 1.5 g/L sodium bicarbonate, and 1 mM sodium pyruvate. Macrophages were mechanically detached with a cell scraper and subcultured in (1:10) proportion of cellular suspension to a final volume of DMEM. The human monocytic cell line THP-1 (ATCC® TIB-202™, American Type Culture Collection, Manassas, VA, USA) was cultivated in RPMI 1640 supplemented with 10% inactivated FBS, 25 mM (D)-glucose, 10 mM HEPES, 1 mM sodium pyruvate, 100 U/mL penicillin, and 100 μg/mL streptomycin, and maintained at a cell density of 0.4 × 10^6 cells/mL. Cells were subcultured every 2 or 3 days and maintained in culture for 2–3 months, according to ATCC® instructions.
# Mitochondrial superoxide (O2^−) generation was determined using the MitoSOX Red kit, according to the manufacturer’s instructions. Briefly, 5.0 × 10^5 cells/mL were plated in a 12-well plate and incubated for 24 h at 37 °C. The cells were then exposed to the AA, AAG and AAGS solution (500 µM), and after 1 h, rotenone (20 μM) was added, followed by incubation for an additional 5 h. The cells were then carefully detached, transferred to microtubes, and centrifuged at 500× g for 3 min. The cell pellet was washed with HBSS solution (2 × 1 mL), resuspended in PBS solution, and 300 µL was collected in two microtubes for unstained (150 µL) and stained (150 µL) conditions. The stained cells were incubated with 100 μL of freshly prepared MitoSOX solution 2.5 µM at 37 °C for 15 min in the dark. The stained cells were washed with HBSS solution (2 × 1 mL), and the cell pellet was resuspended in 100 μL of PBS and analyzed by flow cytometry using a BD Accuri™ C6 cytometer (San Jose, CA, USA).
# CD86 and CD54 levels were analyzed by flow cytometry using the acquisition channels FL1 and FL4. Mitochondrial O2^− production was measured by flow cytometry using the acquisition channel FL2. The relative fluorescence intensity (RFI) of CD86 and CD54 (THP-1 maturation assay) and MitoSOX (mitochondrial antioxidant activity) in the control and chemical-treated cells, based on the geometric mean fluorescence intensity (MFI), was calculated according to the following equation: RFI=MFI of chemical treated cells−MFI of chemical treated unstained cells/MFI of control treated cells−MFI of control unstained cells ×100
# [2] = DSC thermal analysis and compatibility with excipients; format: physicochemical; details: for compatibility with Carbopol 980 (CP) / compatibility with hydroxyethylcellulose (HEC) / compatibility with miglyol 812 (MIG) / compatibility with stearyl alcohol (SA) / compatibility with tocopherol (TP) / compatibility with EDTA: 1:1 (w/w) mixture; for Tonset / Tpeak / ΔH: compound alone, 10 °C/min, nitrogen
# Procedure: A differential scanning calorimeter (DSC) 200F3 Maia (Netzsh-Gerätebau GmbH, Selb, Germany) was used for thermal analysis of the ingredients and mixtures. Typical excipients of topical formulations with different functions were selected for this study. The physical mixtures between compounds and the excipients were prepared in a ratio of 1:1 (w/w). Individual samples and the physical mixtures were weighed directly in the pierced DSC aluminum pan and scanned in the temperature range of 20–400 °C under nitrogen atmosphere with flow of 40 mL/min, with a heating rate of 10 °C/min. An empty aluminum pan was used as reference. The onset temperature and melting enthalpy (ΔH) were calculated using Proteus Analysis software (Version 6.1, NETZSCH-Gerätebau GmbH, Germany). The DSC cell was calibrated (sensitivity and temperature calibration) with Hg (m.p. −38.8 °C), In (m.p. 156.6 °C), Sn (m.p. 231.9 °C), Bi (m.p. 271.4 °C), Zn (m.p. 419.5 °C), and CsCl (m.p. 476.0 °C) as standards.
# [3] = DPPH radical scavenging assay; details: ethanol, 15 min in the dark, 517 nm; ± SD
# Procedure: Stock solutions of each compound (100 µM) and DPPH solution (150 µM) were prepared in ethanol. Different concentrations of antioxidant solutions (0.1–50 µM) were prepared to test their antioxidant effect. In a 96-well plate, 100 µL of DPPH working solution was added to a 100 µL sample solution and incubated at room temperature for 15 min in the dark. The absorbance of each sample was measured at 517 nm, in a microplate reader. For the negative control, 100 μL ethanol was added instead of the antioxidant solution. Rutin was used as the positive control. Inhibition curves were constructed, and the half maximal effective concentration (EC50) values were calculated for all samples by linear regression for the three independent assays performed.
# [4] = Photostability under UVA + UVB radiation; format: physicochemical; details: for variation in absorbance after irradiation: UVA + UVB, up to 15 min
# Procedure: Three independent compound solutions (100 µM) were prepared and exposed to light. A volume of 50 mL of each sample replicate was exposed side-by-side under a UV lamp at a […] distance through an appropriate duration of time. These conditions were monitored using calibrated radiometers. The lamp used as light source for the photostability assay emitted an irradiance of 0.62 mW/cm^2 and 0.74 mW/cm^2 of UVA and UVB light, respectively. A UV lamp (Osram, Ultra-Vitalux, 300 W) was positioned at a height of 54 cm. The UV lamp was turned on 1 h before the experiment, and the UVA and UVB irradiances were measured, maintaining the controlled temperature. At the end of the exposure period, the absorbance spectrum was measured between 200 nm and 800 nm using a UV–vis spectrophotometer. The exposed samples were analyzed concomitantly with protected samples (dark controls). Photostability was evaluated by comparing the UV–vis spectra at each evaluation time for each antioxidant.
compatibility with Carbopol 980 (CP) [2],compatibility with miglyol 812 (MIG) [2],compatibility with stearyl alcohol (SA) [2],compatibility with tocopherol (TP) [2],Tonset [2] [°C],Tpeak [2] [°C],ΔH [2] [J/g],EC50 [3] [µM],variation in absorbance after irradiation [4],compatibility with EDTA [2],increase of absorbance (hyperchromic effect) ([4]; after 5 min of UV exposure (UVA + UVB)) [%],Compound,pro-oxidant profile [1],mitochondrial antioxidant activity [1],compatibility with hydroxyethylcellulose (HEC) [2]
Weak interferences,more compatible,Weak interferences,more compatible,195.0,200.5,223.1,5.28 ± 0.36,practically imperceptible,–,–,"O=C1OC(C(COS(=O)(=O)O)OS(=O)(=O)O)C(OS(=O)(=O)O)=C1OC1OC(COS(=O)(=O)O)C(OS(=O)(=O)O)C(OS(=O)(=O)O)C1OS(=O)(=O)O [AAGS, 2-O-α-D-glucopyranosyl-L-ascorbic acid persulfate]","non-prooxidant; also recorded: AA, AAG, and AAGS with no pro-oxidant profile % inhibition of rotenone-induced SO2^− production: AA > AAG > AAGS",did not demonstrate an ability to exert antioxidant activity in mitochondria,more compatible; also recorded: favorable compatibility
–,more compatible,Weak interferences,more compatible,173.0,176.4,-139.8,9.15 ± 0.13,slight variation in the absorbance,more compatible,–,"O=C1O[C@H]([C@@H](O)CO)C(O)=C1O[C@H]1O[C@H](CO)[C@@H](O)[C@H](O)[C@H]1O [AAG, 2-O-α-D-glucopyranosyl-L-ascorbic acid]","AA, AAG, and AAGS with no pro-oxidant profile % inhibition of rotenone-induced SO2^− production: AA > AAG > AAGS",did not demonstrate an ability to exert antioxidant activity in mitochondria,Weak interferences
Weak interferences,–,–,–,192.9,197.1,-328.6,1.54 ± 0.21,–,Weak interferences,~50,"O=C1O[C@H]([C@@H](O)CO)C(O)=C1O [AA, Ascorbic acid]","AA, AAG, and AAGS with no pro-oxidant profile % inhibition of rotenone-induced SO2^− production: AA > AAG > AAGS",–,–
